{
  "source": "patent US20250186458A1",
  "about": "“METHODS FOR THE TREATMENT OF MILD COGNITIVE IMPAIRMENT” (BIOVIE INC., priority 2022, published 2025)",
  "key": {"[1]": {"test_system": "patients with mild or moderate dementia", "experiment": "Exploratory Phase 2 trial NE3107-TRP-001 (ADAS-Cog 11, GRC, PHQ-9)", "type": "in vivo, human", "set-up": "key to ADAS-Cog-11 score at 3M: ADAS-Cog11 score 0-70; higher = more severe cognitive impairment", "conditions": "for Patient Global Rating of Change (GRC): Month 3, scale −5 to 5; for ADAS-Cog-11 Change: baseline to 3M, decrease = improvement", "description": "An exploratory Phase 2 trial of 17α-ethynylandrost-5-ene-3β,7β,17β-triol (NE3107-TRP-001) in 23 patients with mild (n=17) or moderate dementia (n=6) were conducted. Comparisons between baseline and post-intervention (3 months) were evaluated via multi-modal brain magnetic resonance images (MRIs; primary endpoints), measures of glucose and insulin homeostasis, and neuropsychological testing (secondary endpoints).\nThe interview results were compared with changes from baseline to Month 3 in cognitive functioning as measured by the ADAS-Cog11, and the patient-completed Global Rating of Change (GRC) at Month 3 in the Phase 2 trial (Table 8).\nThe ADAS-Cog 11 is a performance-based assessment of cognitive function that includes 11 patient-completed tasks that measure word recall, objective/figure naming, command following, constructional praxis, ideational praxis, orientation, word recognition, test direction recall, spoken language, comprehension, and word-finding difficulty. Scores range from 0-70 where higher scores indicate more severe cognitive impairment (i.e., decreases in score over time indicate improvement in cognition). The GRC is a single item that asks patients to rate changes in their condition, abilities, and overall sense of well-being from the start of the trial. Scores range from −5 (“Very much worse”) to 0 (“Unchanged”) to +5 (“Very much better”)."}, "[2]": {"test_system": "patients with cognitive impairment consistent with MCI or mild probable AD", "experiment": "Open-label three-month study, cognitive tests (QDRS, MMSE, MoCA, ADAS-Cog12, Global Rating of Change)", "type": "in vivo, human", "text": "Twenty-three patients, approximately equal numbers of men women, age 50-89 years, with cognitive impairment consistent with MCI or mild probable AD, but without other readily apparent major systemic disease were identified and received informed consent under the supervision of a central institution review board (IRB). Patients were qualified (screened) for the study by the following criteria, QDRS score ranging from 1.5-12.5, with a converted Clinical Dementia Rating (CDR) score of 0.5 (mild cognitive impairment) to 1 (mild dementia).\nPrior to treatment (baseline) concomitant medications were stabilized and the patients were tested for cognitive function by the Quick Dementia Rating Scale (QDRS), Clinical Dementia Rating (CDR) score as estimated by the QDRS, a modified form of the Alzheimer's Disease Assessment Scale (ADAS-Cog12), the Mini-Mental State Examination (MMSE), and the Montreal Cognitive Assessment (MoCA) and by multi-modal brain MRIs to establish pre-treatment data for glutathione levels (as measured by magnetic resonance spectroscopy, MRS), dendritic density (as measured by diffusion tensor imaging, DTI-NODDI); arterial signal compared (as quantified by arterial spin labeling, ASL), functional connectivity of the nucleus basalis of Meynert (NBM) with both hippocampi as well as between both hippocampi as visualized by seed analysis of blood-oxygen level dependent (BOLD) imaging, and neurovascular coupling as visualized by BOLD compared to baseline. Baseline samples of the patients' blood and cerebral spinal fluid were collected for evaluation of AD and inflammation biomarkers.\nPatients were treated with 20 mg 17α-ethynylandrost-5-ene-3β,7β,17β-triol oral capsules twice daily (BID for three months. All patients received 17α-ethynylandrost-5-ene-3β,7β,17β-triol; there were no placebo controls. Safety was monitored at clinical visits at 2 weeks, 4 weeks, 8 weeks, and completion. Routine hematology and clinical chemistry tests were performed at these visits and adverse events were monitored.\nAt the end of the treatment schedule the baseline assessments for cognition, neuroimaging and biomarkers were repeated."}, "[3]": {"conditions": "overall population, three months"}, "[4]": {"conditions": "patients with a baseline MMSE score 20, three months"}},
  "data": [
    {"smiles": "C#C[C@]1(O)CC[C@H]2[C@@H]3[C@@H](O)C=C4C[C@@H](O)CC[C@]4(C)[C@H]3CC[C@@]21C", "note": "[17α-ethynylandrost-5-ene-3β,7β,17β-triol, 17-ethynyl-10R, 13S-dimethyl 2,3,4,7, 8R, 9S, 10, 11, 12, 13, 14S, 15, 16, 17-hexadecahydro-1H-cyclopenta[a]phenanthrene-3R, 7R, 17S-triol]", "values": [
      {"measurement": "increase in ADAS-Cog 11 score, where not decreased", "setting": "[1]; all interviewed patients, 3-month follow up, 3.1 to 3.8 points = clinically significant worsening", "result": "< 3.1", "unit": "points"},
      {"measurement": "mean PHQ-9 score decrease", "setting": "[1]; change from baseline", "result": 4.3, "unit": "points"},
      {"measurement": "improvement in depression symptoms (PHQ-9)", "setting": "[1]; patients with baseline PHQ-9 score ≥5", "result": "greatest improvement in depression symptoms"},
      {"measurement": "individual PHQ-9 domains (apathy, depressive symptoms, sleep disturbance, fatigue, eating disorders, low self-esteem)", "setting": "[1]; patients with baseline PHQ-9 score ≥5 compared to all patients", "result": "greater improvement, compared to all patients"},
      {"measurement": "Global Rating of Change (GRC)", "setting": "[1]; patients with mild dementia, 3 months", "result": "improvements on the Global Rating of Change"},
      {"measurement": "ADAS-Cog 11 decrease", "setting": "[1]; patients with mild dementia, baseline vs 3 months, p=0.0046", "result": 2.6, "unit": "point"},
      {"measurement": "Patient Global Rating of Change (GRC)", "setting": "[1]; subject N-02-22", "result": "−5"},
      {"measurement": "ADAS-Cog-11 score at 3M", "setting": "[1]; subject N-02-22, baseline 5.00", "result": 5.67},
      {"measurement": "ADAS-Cog-11 Change", "setting": "[1]; subject N-02-22", "result": "+0.67"},
      {"measurement": "Patient Global Rating of Change (GRC)", "setting": "[1]; subject N-03-22", "result": 3.5},
      {"measurement": "ADAS-Cog-11 score at 3M", "setting": "[1]; subject N-03-22, baseline 11.33", "result": 6.00},
      {"measurement": "ADAS-Cog-11 Change", "setting": "[1]; subject N-03-22", "result": "−5.33"},
      {"measurement": "Patient Global Rating of Change (GRC)", "setting": "[1]; subject N-07-22", "result": 1},
      {"measurement": "ADAS-Cog-11 score at 3M", "setting": "[1]; subject N-07-22, baseline 19.33", "result": 14.67},
      {"measurement": "ADAS-Cog-11 Change", "setting": "[1]; subject N-07-22", "result": "−4.67"},
      {"measurement": "Comparison (ADAS-Cog 11/GRC/Interview)", "setting": "[1]; subject N-10-22", "result": "+/−/NC"},
      {"measurement": "Patient Global Rating of Change (GRC)", "setting": "[1]; subject N-10-22", "result": "−1"},
      {"measurement": "ADAS-Cog-11 score at 3M", "setting": "[1]; subject N-10-22, baseline 5.00", "result": 2.33},
      {"measurement": "ADAS-Cog-11 Change", "setting": "[1]; subject N-10-22", "result": "−2.67"},
      {"measurement": "Comparison (ADAS-Cog 11/GRC/Interview)", "setting": "[1]; subject N-14-22", "result": "+/+/NC"},
      {"measurement": "Patient Global Rating of Change (GRC)", "setting": "[1]; subject N-14-22", "result": 2},
      {"measurement": "ADAS-Cog-11 score at 3M", "setting": "[1]; subject N-14-22, baseline 14.00", "result": 9.00},
      {"measurement": "ADAS-Cog-11 Change", "setting": "[1]; subject N-14-22", "result": "−5.00"},
      {"measurement": "Patient Global Rating of Change (GRC)", "setting": "[1]; subject N-16-22", "result": 4},
      {"measurement": "ADAS-Cog-11 score at 3M", "setting": "[1]; subject N-16-22, baseline 21.00", "result": 11.00},
      {"measurement": "ADAS-Cog-11 Change", "setting": "[1]; subject N-16-22", "result": "−10.00"},
      {"measurement": "Patient Global Rating of Change (GRC)", "setting": "[1]; subject N-17-22", "result": 4},
      {"measurement": "ADAS-Cog-11 score at 3M", "setting": "[1]; subject N-17-22, baseline 6.67", "result": 9.33},
      {"measurement": "ADAS-Cog-11 Change", "setting": "[1]; subject N-17-22", "result": "+2.67"},
      {"measurement": "Patient Global Rating of Change (GRC)", "setting": "[1]; subject N-18-22", "result": 4},
      {"measurement": "ADAS-Cog-11 score at 3M", "setting": "[1]; subject N-18-22, baseline 10.00", "result": 8.67},
      {"measurement": "ADAS-Cog-11 Change", "setting": "[1]; subject N-18-22", "result": "−1.33"},
      {"measurement": "Patient Global Rating of Change (GRC)", "setting": "[1]; subject N-20-22", "result": 3},
      {"measurement": "ADAS-Cog-11 score at 3M", "setting": "[1]; subject N-20-22, baseline 4.00", "result": 3.33},
      {"measurement": "ADAS-Cog-11 Change", "setting": "[1]; subject N-20-22", "result": "−0.67"},
      {"measurement": "Patient Global Rating of Change (GRC)", "setting": "[1]; subject N-22-22", "result": 5},
      {"measurement": "ADAS-Cog-11 score at 3M", "setting": "[1]; subject N-22-22, baseline 27.67", "result": 29.00},
      {"measurement": "ADAS-Cog-11 Change", "setting": "[1]; subject N-22-22", "result": "+1.33"},
      {"measurement": "Patient Global Rating of Change (GRC)", "setting": "[1]; subject N-23-22", "result": 3},
      {"measurement": "ADAS-Cog-11 score at 3M", "setting": "[1]; subject N-23-22, baseline 9.33", "result": 10.00},
      {"measurement": "ADAS-Cog-11 Change", "setting": "[1]; subject N-23-22", "result": "+0.67"},
      {"measurement": "QDRS, median decrease", "setting": "[2]; 20 mg oral BID, three months vs baseline", "result": 0.75, "unit": "points"},
      {"measurement": "GSR scores improved, by patients", "setting": "[2]; MCI patients, three months", "result": "15 of 17"},
      {"measurement": "GSR scores improved, by study partners", "setting": "[2]; MCI patients, three months", "result": "11 of 17"},
      {"measurement": "GSR scores improved, by the clinician", "setting": "[2]; MCI patients, three months", "result": "16 of 17"},
      {"measurement": "Median QDRS behavioral improved", "setting": "[2]; MCI patients, three months", "result": "one"},
      {"measurement": "Montreal Cognitive Assessment, improved", "setting": "[2]; MCI patients, three months", "result": "7 of 17"},
      {"measurement": "QDRS behavioral, improved", "setting": "[2]; MCI patients, three months", "result": "11 of 18"},
      {"measurement": "ADAS Cog 12, median score improved", "setting": "[2]; MCI population, three months", "result": 2.3, "unit": "points"},
      {"measurement": "ADAS Cog 12 score, improved", "setting": "[2]; MCI population, three months", "result": "14 of 17"},
      {"measurement": "MMSE score, improved", "setting": "[2]; MCI population, three months", "result": "8 of 17"},
      {"measurement": "QDRS, patients improved", "setting": "[2]; of patients evaluated, 20 mg oral BID, three months", "result": "14 of 21"},
      {"measurement": "ADAS Cog 12, median score improved", "setting": "[2]; [3]", "result": 0.67, "unit": "points"},
      {"measurement": "ADAS Cog 12 score, improved", "setting": "[2]; [3]", "result": "14 of 23"},
      {"measurement": "Global Rating of Change (GRS), clinician's score improved", "setting": "[2]; [3]", "result": "18 of 23"},
      {"measurement": "Global Rating of Change (GRS), patient's self-evaluation score improved", "setting": "[2]; [3]", "result": "18 of 23"},
      {"measurement": "Global Rating of Change (GRS), score from study partners improved", "setting": "[2]; [3]", "result": "13 of 22"},
      {"measurement": "MMSE score, improved", "setting": "[2]; [3]", "result": "9 of 23"},
      {"measurement": "Montreal Cognitive Assessment, patients improved", "setting": "[2]; [3]", "result": "9 of 23"},
      {"measurement": "improved (QDRS)", "setting": "[2]; [4]", "result": "12/17"},
      {"measurement": "median score improvement (QDRS)", "setting": "[2]; [4]", "result": "one"},
      {"measurement": "Median QDRS cognition subscores improved (declined)", "setting": "[2]; three months vs baseline", "result": 0.5, "unit": "points"},
      {"measurement": "QDRS cognition subscores, patients improved", "setting": "[2]; three months vs baseline", "result": "16/23"}
    ]}
  ]
}
